Measurements as given in ChEMBL document CHEMBL1201862, “PubChem BioAssay data set” (2004).
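Assay format: 96-well plates, 48-hour exposure. GI50: concentration for 50% inhibition of growth.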 Calls of active or inactive are those of the source. Cut-off read from the data, not from the text of the source: active = GI50 up to about 1.1 µM and inactive = higher.

Key:
Assay in all cases: growth of human tumour cells (NCI), 48 h
A498 = tested on: A498
ACHN = tested on: ACHN
K562 = tested on: K562
SN12C = tested on: SN12C
UACC-62 = tested on: UACC-62
SW-620 = tested on: SW-620
Malme-3M = tested on: Malme-3M
HCC 2998 = tested on: HCC 2998
SK-MEL-28 = tested on: SK-MEL-28
IGROV-1 = tested on: IGROV-1
SF-268 = tested on: SF-268
CAKI-1 = tested on: CAKI-1
CCRF-CEM = tested on: CCRF-CEM
NCI-H226 = tested on: NCI-H226
SNB-75 = tested on: SNB-75
NCI-H23 = tested on: NCI-H23
HOP-18 = tested on: HOP-18
PC-3 = tested on: PC-3
BT-549 = tested on: BT-549
MDA-MB-435 = tested on: MDA-MB-435

Row | Structure (SMILES) | GI50 (A498) | GI50 (ACHN) | GI50 (K562) | GI50 (SN12C) | GI50 (UACC-62) | GI50 (SW-620) | GI50 (Malme-3M) | GI50 (HCC 2998) | GI50 (SK-MEL-28) | GI50 (IGROV-1) | GI50 (SF-268) | GI50 (CAKI-1) | GI50 (CCRF-CEM) | GI50 (NCI-H226) | GI50 (SNB-75) | GI50 (NCI-H23) | GI50 (HOP-18) | GI50 (PC-3) | GI50 (BT-549) | GI50 (MDA-MB-435)
1 | O=C(/C=C/c1ccc(OCC(=O)N2CCN(c3ccccc3)CC2)cc1)c1ccccc1 | > 56.8 µM (inactive) | 19.7 µM (inactive) | 3.18 µM (inactive) | 19.7 µM (inactive) | 17.8 µM (inactive) | 3.13 µM (inactive) | 15 µM (inactive) | 45.4 µM (inactive) | 16 µM (inactive) | 32.9 µM (inactive) | 26.7 µM (inactive) | 93.3 µM (inactive) | 2.84 µM (inactive) | 16.9 µM (inactive) | 17.9 µM (inactive) | 17.8 µM (inactive) | > 50 µM (inactive) | – | – | –
2 | Nc1nccc2c1ncn2C1C=C(CO)C(O)C1O (stereo not drawn) | > 100 µM (inactive) | 20.6 µM (inactive) | 1.86 µM (inactive) | 74.3 µM (inactive) | 11.5 µM (inactive) | 1.75 µM (inactive) | 43.6 µM (inactive) | 48.2 µM (inactive) | 2.73 µM (inactive) | > 95.5 µM (inactive) | > 96.4 µM (inactive) | 21.1 µM (inactive) | 2.76 µM (inactive) | 49.1 µM (inactive) | 62.1 µM (inactive) | 68.7 µM (inactive) | > 96.6 µM (inactive) | > 100 µM (inactive) | 83.2 µM (inactive) | > 100 µM (inactive)
3 | CC(C)C(=O)N1Cc2cc(Cl)cc(Cl)c2OC(=O)c2ccccc21 | 27.5 µM (inactive) | 24.5 µM (inactive) | 51.1 µM (inactive) | 32.7 µM (inactive) | 19.8 µM (inactive) | 33 µM (inactive) | 20.9 µM (inactive) | 28.4 µM (inactive) | 42.4 µM (inactive) | 29.5 µM (inactive) | 19.6 µM (inactive) | 22.8 µM (inactive) | 27 µM (inactive) | 23.1 µM (inactive) | 30.3 µM (inactive) | 66.2 µM (inactive) | 25.6 µM (inactive) | – | – | –
4 | CCOC(=O)[C@@]1(C)C=C2O[C@@H]3OC4(CCCCC4)O[C@@H]3C2=C2C(O)=CC=C(O)[C@]21C(=O)OC | > 68.1 µM (inactive) | > 68.1 µM (inactive) | 51.1 µM (inactive) | > 68.1 µM (inactive) | > 68.1 µM (inactive) | > 68.1 µM (inactive) | > 68.1 µM (inactive) | > 68.1 µM (inactive) | > 68.1 µM (inactive) | > 68.1 µM (inactive) | > 68.1 µM (inactive) | 51.4 µM (inactive) | > 68.1 µM (inactive) | > 68.1 µM (inactive) | > 68.1 µM (inactive) | > 68.1 µM (inactive) | > 68.1 µM (inactive) | – | – | –
5 | Cc1c(C)c(CC(=O)N2CC2)c(C)c(C)c1CC(=O)N1CC1 | 16 µM (inactive) | 1.43 µM (inactive) | 12.6 µM (inactive) | 4.03 µM (inactive) | 3.33 µM (inactive) | 14.5 µM (inactive) | 12.1 µM (inactive) | 11.4 µM (inactive) | 17 µM (inactive) | 17.1 µM (inactive) | 2.41 µM (inactive) | 2.12 µM (inactive) | 1.15 µM (inactive) | 15.5 µM (inactive) | 6.73 µM (inactive) | 2.77 µM (inactive) | 28.4 µM (inactive) | 16 µM (inactive) | 21.9 µM (inactive) | 16 µM (inactive)
6 | COc1c(OC(C)=O)c(OC(C)=O)cc2c1-c1ccc(SC)c(=O)cc1C(NC(C)=O)CC2 (stereo not drawn) | 4.02 µM (inactive) | 11.6 µM (inactive) | 0.316 µM (active) | 0.993 µM (active) | 0.397 µM (active) | 0.959 µM (active) | 0.468 µM (active) | 0.454 µM (active) | 0.342 µM (active) | 0.933 µM (active) | 0.472 µM (active) | 6.89 µM (inactive) | 0.384 µM (active) | 7.82 µM (inactive) | 0.299 µM (active) | 0.392 µM (active) | > 100 µM (inactive) | 2.14 µM (inactive) | 0.201 µM (active) | 0.179 µM (active)
7 | C/C=C/C[C@@H](C)[C@@H](O)[C@H]1C(=O)N[C@@H](CC)C(=O)N(C)CC(=O)N(C)[C@@H](CC(C)C)C(=O)N[C@@H](C(C)C)C(=O)N(C)[C@@H](CC(C)C)C(=O)N[C@@H](C)C(=O)N[C@H](C)C(=O)N(C)[C@@H](CC(C)C)C(=O)N(C)[C@@H](CC(C)C)C(=O)N(C)[C@@H](C(C)C)C(=O)N1C [CYCLOSPORINE] | 4.95 µM (inactive) | 5.5 µM (inactive) | 3.99 µM (inactive) | 3.95 µM (inactive) | 3.85 µM (inactive) | 11.2 µM (inactive) | 7.45 µM (inactive) | 2.15 µM (inactive) | 5.68 µM (inactive) | 5.24 µM (inactive) | 7.26 µM (inactive) | 6.98 µM (inactive) | 3.08 µM (inactive) | 4.39 µM (inactive) | 7.21 µM (inactive) | 5.37 µM (inactive) | 11.1 µM (inactive) | – | – | –
